Results from the CheMixHub ionic liquid set.

Test: xn = mol fraction of the nth substance listed

CC[n+]1ccn(C)c1.O=S(=O)([O-])O + O
viscosity [mPa·s]
Settings	293.15 K	298.15 K	303.15 K	308.15 K	313.15 K	318.15 K
100 kPa, x1 = 0.0005421	1.046	0.929	0.824	0.75	0.678	–
100 kPa, x1 = 0.0009002	1.05	0.94	0.84	0.76	0.69	0.65
100 kPa, x1 = 0.0009056	1.068	0.949	0.843	0.759	0.684	–
100 kPa, x1 = 0.001263	1.073	0.966	0.866	0.78	0.697	–
100 kPa, x1 = 0.001799	1.07	0.95	0.85	0.77	0.7	0.64
100 kPa, x1 = 0.002696	1.08	0.96	0.86	0.78	0.71	0.64
101 kPa, x1 = 0.0006645	1.023	0.93	0.8234	0.7498	0.6736	–
101 kPa, x1 = 0.0007293	1.036	0.943	0.8247	0.7493	0.6893	–
101 kPa, x1 = 0.0009254	1.064	0.943	0.8439	0.7628	0.6829	–

CCn1cc[n+](C)c1.COCCOCCOS(=O)(=O)[O-] + O
101 kPa
Settings	electrical conductivity [S/m]
298.2 K, x2 = 0.4	0.3
298.2 K, x2 = 0.6	0.51
313.2 K, x2 = 0.2	0.46
313.2 K, x2 = 0.8	1.63
328.2 K, x2 = 0.4	0.92
338.2 K, x2 = 0.2	1.05
338.2 K, x2 = 0.6	1.77
338.2 K, x2 = 0.8	2.97
343.2 K, x2 = 0.8	3.28
348.2 K, x2 = 0.2	1.36
348.2 K, x2 = 0.4	1.51
353.2 K, x2 = 0.6	2.39
353.2 K, x2 = 0.8	3.93

CCCC[n+]1ccn(C)c1.O=S(=O)([N-]S(=O)(=O)C(F)(F)F)C(F)(F)F + CC1CCC(=O)O1
100 kPa, frequency 0.01 MHz, x1 = 1
Settings	electrical conductivity [S/m]
293.15 K	0.337
298.15 K	0.4
303.15 K	0.472
308.15 K	0.552
313.15 K	0.64
318.15 K	0.733
323.15 K	0.835

CC[n+]1ccn(C)c1.O=S(=O)([O-])O + OCCO
100 kPa
Settings	viscosity [mPa·s]
303.15 K, x1 = 0.125	15
303.15 K, x1 = 0.5	76
308.15 K, x1 = 0.25	24
313.15 K, x1 = 0.143	12
313.15 K, x1 = 0.33	30
318.15 K, x1 = 0.167	12
323.15 K, x1 = 0.33	21

CCCCCCO + CCCC[n+]1ccn(C)c1.O=[N+]([O-])[O-]
100 kPa, x2 = 0
Settings	viscosity [mPa·s]
293.15 K	5.37
303.15 K	3.94
313.15 K	2.95
323.15 K	2.26

CCCC[n+]1ccn(C)c1.F[P-](F)(F)(F)(F)F + OCCOCCOCCOCCO
Settings	viscosity [mPa·s]
298.15 K, 101 kPa, x2 = 0	254

Cn1cc[nH+]c1.[Cl-] + OCC(O)CO
100 kPa, x1 = 0.333
Settings	viscosity [mPa·s]
298.15 K	126.1
313.15 K	70.3
333.15 K	35
